Legend:
[1] = test system: genetically obese mice; assay: carcass lipid of genetically obese mice after daily oral dosing for 28 days (anti-obesity); assay type: in vivo, mouse (genetically obese); conditions: for anti-obesity activity (in words): general statement, no dose given; for g - lipid per mouse, Treated: daily for 28 days
Description: (i) The compounds and a comparison compound (salbutamol) were dosed daily in water or carboxymethylcellulose suspension to genetically obese mice by oral gavage for 28 days. At the end of that time the carcass composition was determined.

[2] = test system: blood glucose; assay: hypoglycaemic activity: reduction in area under blood glucose curve after glucose load in fasted mice; assay type: in vivo, female CFLP mice; conditions: for anti-hyperglycaemic activity (in words): general statement, no dose given; for inhibition in vivo at 5 mg/kg: Mus musculus, po, 2 h
Description: Female CFLP mice, weighing approximately 25 g, were fasted for 24 hours prior to the study. The compounds under study were dosed orally (20 mg and 5 mg/kg) to each of 8 mice. 30 minutes later a blood sample ([…]) was obtained from the tail for the analysis of blood glucose. Immediately after taking this blood sample, each mouse was given a glucose load (1 g/kg body weight sub-cutaneously). Blood samples were then obtained from each mouse at 30 minute intervals for 120 minutes.
Compounds that produced a significant (P<0.05) reduction of blood glucose, compared with control mice given water, at any time interval were considered active. The area under the blood glucose curve over the 2 hour period after giving the glucose load was calculated for each compound and compared with the value for control animals. Thus a compound would give a 100% reduction in the area under the blood glucose curve if the blood glucose was maintained at the same level as in untreated fasted animals. Reduction in the glucose curve of more than 100% indicate that a compound, in spite of being given a glucose load, maintained blood glucose levels below that found in control fasted mice.

[3] = relative potency / activity (test not specified)
[4] = test system: CFLP mice; assay: acute toxicity, single lethal dose; assay type: in vivo; conditions: po
From the text: Other compounds of the invention have similar low toxicities.

[5] = test system: 5-hydroxytryptamine-induced bronchoconstriction; assay: bronchodilator potency in anaesthetised artificially respired guinea pig (Konzett-Rossler preparation); assay type: in vivo; conditions: inhibition of 5-hydroxytryptamine-induced bronchoconstriction
[6] = 10 mg/kg po, control 18.3 ± 0.6 (Ex. 7), 16.5 ± 0.7 (Ex. 16, 21)
[7] = 5 mg/kg po, 30 min before glucose load 1 g/kg sc, 2 hour period, versus control mice
[8] = 11 mg/kg po, control 18.9 ± 0.66 (Ex. 12), 17.0 ± 0.67 (Ex. 17)
[9] = 9 mg/kg po, control 18.9 ± 0.66

SMILES: COC(=O)c1ccc(CC(C)NCC(O)c2ccc(O)c(CO)c2)cc1 (stereo not shown) [21 (higher melting), N-[2-(4-carbomethoxyphenyl)-1-methylethyl]-2-hydroxy-2-(4-hydroxy-3-hydroxymethylphenyl) ethanamine]
- anti-obesity activity (in words) [1]: particularly worthy of mention in view of their anti-obesity activity
- anti-hyperglycaemic activity (in words) [2]: particularly worthy of mention in view of their anti-hyperglycaemic activity
- relative potency / activity (in words) [3]: more potent diastereoisomer

SMILES: COC(=O)c1ccc(CC(C)NCC(O)c2ccc(O)c(CO)c2)cc1 (stereo not shown) [21 (mp 140.5-143.5°), N-[2-(4-carbomethoxyphenyl)-1-methylethyl]-2-hydroxy-2-(4-hydroxy-3-hydroxymethylphenyl) ethanamine]
- g - lipid per mouse, Treated [1, 6]: 12.7 ± 0.8 g
- Reduction in area under blood glucose curve (%) [2, 7]: 153%

SMILES: COC(=O)c1ccc(CC(C)NCC(O)c2ccc(O)c(CO)c2)cc1 (stereo not shown) [Example 1]
- g - lipid per mouse, Treated ([1]; 8 mg/kg po, control 23.3 ± 0.7): 20.8 ± 0.7 g
- anti-obesity activity (in words) [1]: particularly worthy of mention in view of their anti-obesity activity
- inhibition in vivo at 5 mg/kg [2, 7]: 157%
- anti-hyperglycaemic activity (in words) [2]: particularly worthy of mention in view of their anti-hyperglycaemic activity
- single lethal dose [4]: > 900 mg/kg
- bronchodilator potency relative to salbutamol [5]: one twelfth as potent as salbutamol

SMILES: COC(=O)c1ccc(CCC(C)NCC(O)c2ccc(O)c(CO)c2)cc1 (stereo not shown) [Example 7]
- g - lipid per mouse, Treated [1, 6]: 14.3 ± 0.4 g
- anti-obesity activity (in words) [1]: particularly worthy of mention in view of their anti-obesity activity
- inhibition in vivo at 5 mg/kg [2, 7]: 110%
- anti-hyperglycaemic activity (in words) [2]: particularly worthy of mention in view of their anti-hyperglycaemic activity

SMILES: COC(=O)c1ccc(CC(C)NCC(O)c2ccc(O)c(CO)c2)c(OC)c1 (stereo not shown) [Example 12, N-[2-(4-Carbomethoxy-2-methoxyphenyl)-1-methylethyl]-2-hydroxy-2-(4-hydroxy-3-hydroxymethylphenyl)ethanamine]
- g - lipid per mouse, Treated [1, 8]: 16.2 ± 0.42 g
- anti-obesity activity (in words) [1]: particularly worthy of mention in view of their anti-obesity activity
- inhibition in vivo at 5 mg/kg [2, 7]: 168%
- anti-hyperglycaemic activity (in words) [2]: particularly worthy of mention in view of their anti-hyperglycaemic activity

SMILES: COC(=O)c1ccc(CC(C)NCC(O)c2ccc(O)c(CO)c2)cc1C (stereo not shown) [Example 14, N-[2-(4-Carbomethoxy-3-methylphenyl)-1-methylethyl]-2-hydroxy-2-(4-hydroxy-3-hydroxymethylphenyl)ethanamine]
- g - lipid per mouse, Treated ([1]; 10.5 mg/kg po, control 17.0 ± 0.67): 14.3 ± 0.61 g
- anti-obesity activity (in words) [1]: particularly worthy of mention in view of their anti-obesity activity

SMILES: CCOC(=O)c1ccc(CC(C)NCC(O)c2ccc(O)c(CO)c2)cc1 (stereo not shown) [Example 16, N-[2-(4-Carboethoxyphenyl)-1-methylethyl]-2-hydroxy-2-(4-hydroxy-3-hydroxymethylphenyl) ethanamine]
- g - lipid per mouse, Treated [1, 6]: 12.9 ± 0.8 g
- anti-obesity activity (in words) [1]: particularly worthy of mention in view of their anti-obesity activity

SMILES: COC(=O)c1ccc(CCCC(C)NCC(O)c2ccc(O)c(CO)c2)cc1 (stereo not shown) [Example 17]
- g - lipid per mouse, Treated [1, 8]: 14.0 ± 0.97 g
- anti-obesity activity (in words) [1]: particularly worthy of mention in view of their anti-obesity activity
- inhibition in vivo at 5 mg/kg [2, 7]: 84%
- anti-hyperglycaemic activity (in words) [2]: particularly worthy of mention in view of their anti-hyperglycaemic activity

SMILES: COC(=O)c1ccc(CC(C)NCC(O)c2ccccc2)cc1 (stereo not shown) [Example 22, N-(2-[4-Carbomethoxyphenyl]-1-methylethyl)-2-hydroxy-2-phenylethanamine]
- g - lipid per mouse, Treated [1, 9]: 13.9 ± 0.65 g
- anti-obesity activity (in words) [1]: particularly worthy of mention in view of their anti-obesity activity
- inhibition in vivo at 5 mg/kg [2, 7]: 172%
- anti-hyperglycaemic activity (in words) [2]: particularly worthy of mention in view of their anti-hyperglycaemic activity

SMILES: COC(=O)c1ccc(CC(C)NCC(O)c2ccccc2)c(Cl)c1 (stereo not shown) [Example 23, N-(2-[4-Carbomethoxy-2-chlorophenyl]-1-methylethyl)-2-hydroxy-2-phenylethanamine]
- anti-obesity activity (in words) [1]: particularly worthy of mention in view of their anti-obesity activity

SMILES: COC(=O)c1ccc(CC(C)NCC(O)c2ccccc2)c(OC)c1 (stereo not shown) [Example 24, N-(2-[4-Carbomethoxy-2-methoxyphenyl]-1-methylethyl)-2hydroxy-2-phenylethanamine]
- anti-obesity activity (in words) [1]: particularly worthy of mention in view of their anti-obesity activity

SMILES: COC(=O)c1ccc(CC(C)(C)NCC(O)c2ccccc2)cc1 (stereo not shown) [Example 26, N-(2-[4-Carbomethoxyphenyl]-1,1-dimethylethyl)-2-hydroxy-2-phenylethanamine]
- g - lipid per mouse, Treated [1, 9]: 16.4 ± 1.2 g
- anti-obesity activity (in words) [1]: particularly worthy of mention in view of their anti-obesity activity

SMILES: COC(=O)c1ccc(CC(C)NCC(O)c2ccccc2Cl)cc1 (stereo not shown) [Example 28, N-(2-[4-Carbomethoxyphenyl]-1-methylethyl)-2-(2-chlorophenyl)-2-hydroxyethanamine]
- g - lipid per mouse, Treated ([1]; 19 mg/kg po, control 17.0 ± 0.67): 14.9 ± 0.37 g
- inhibition in vivo at 5 mg/kg [2, 7]: 37%

SMILES: COC(=O)c1ccc(CC(C)NCC(O)c2cc(Cl)c(N)c(Cl)c2)cc1 (stereo not shown) [Example 30, N-(2-[4-Carbomethoxyphenyl]-1-methylethyl)-2-(4-amino-3,5-dichlorophenyl)-2-hydroxyethanamine]
- g - lipid per mouse, Treated ([1]; 22 mg/kg po, control 19.1 ± 0.47): 14.0 ± 0.57 g
- anti-obesity activity (in words) [1]: particularly worthy of mention in view of their anti-obesity activity
- inhibition in vivo at 5 mg/kg [2, 7]: 141%
- anti-hyperglycaemic activity (in words) [2]: particularly worthy of mention in view of their anti-hyperglycaemic activity

SMILES: COC(=O)c1ccc(C[C@@H](C)NCC(O)c2ccc(O)c(CO)c2)cc1 (stereo partly drawn) [Example 35, N-(1-(R)-2-[4-Carbomethoxyphenyl]-1-methylethyl)-2-hydroxy-2-(4-hydroxy-3-hydroxymethylphenyl)ethanamine]
- anti-obesity activity (in words) [1]: particularly worthy of mention in view of their anti-obesity activity

SMILES: COC(=O)c1ccc(CC(C)NCC(O)c2ccc(O)c(NS(C)(=O)=O)c2)cc1 (stereo not shown) [Example 37, N-(2-[4-Carbomethoxyphenyl]-1-methylethyl)-2-(4-hydroxy-3-methanesulphonamidophenyl)-2-hydroxyethanamine]
- anti-obesity activity (in words) [1]: particularly worthy of mention in view of their anti-obesity activity

SMILES: CC(Cc1ccc(C(=O)O)cc1)NCC(O)c1ccccc1 (stereo not shown) [Example 44, N-[2-(4-Carboxyphenyl)-1-methylethyl]-2-hydroxy-2-phenylethanamine]
- anti-obesity activity (in words) [1]: particularly worthy of mention in view of their anti-obesity activity

SMILES: COC(=O)c1ccc(CC(C)NCC(O)c2ccccc2)cc1 (stereo not shown) [Example 59 (mp 83°-4°), N-[2-(4-carbomethoxyphenyl)-1-methylethyl]-2-hydroxy-2-phenylethanamine]
- relative potency / activity (in words) [3]: more potent diastereoisomer

SMILES: CC(C)(C)NCC(O)c1ccc(O)c(CO)c1 (stereo not shown) [Salbutamol, reference compound]
- g - lipid per mouse, Treated ([1]; 25 mg/kg po, control 23.0 ± 0.3): 23.1 ± 0.6 g

Source: patent publication US4478849A, “Secondary amines, their preparation and use in pharmaceutical compositions” (Beecham Group Limited, priority 1978, dated 1984)
